In article PMC13372822 (The EMBO Journal, 2026):
Counter-ions that a name gives are not always drawn.

How the values were obtained:
SUCR1 = molecular target: T1, SUCR1 (Homo sapiens, UniProt Q9BXA5); test: Calcium mobilization assay, wild-type SUCR1 in HEK293 stably expressing Gα16; assay type: cell-based;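 on Emax: percent of the maximal response to succinate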
T1 construct: The full-length human SUCR1 and mutations were fused after the HA signal peptide and Flag tag; HA signal peptide (N); Flag (N); expressed in transfected cells; host or cells: HEK293 stably expressing Gα16 (pcDNA6.0, transient electroporation)
T1 sequence (Q9BXA5 1-334): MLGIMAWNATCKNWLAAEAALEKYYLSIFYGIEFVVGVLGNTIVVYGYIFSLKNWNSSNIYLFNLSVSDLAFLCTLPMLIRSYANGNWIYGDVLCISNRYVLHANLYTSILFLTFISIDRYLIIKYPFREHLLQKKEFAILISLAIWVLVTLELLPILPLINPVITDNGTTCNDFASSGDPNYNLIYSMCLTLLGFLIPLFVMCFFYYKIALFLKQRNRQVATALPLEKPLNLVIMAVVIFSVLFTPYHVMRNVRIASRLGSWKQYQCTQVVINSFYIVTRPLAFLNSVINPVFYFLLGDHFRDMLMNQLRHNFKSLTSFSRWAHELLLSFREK
Description: (§1) The full-length human SUCR1 and mutations were fused after the HA signal peptide and Flag tag. The constructs were cloned into pcDNA6.0 vector for HEK293 system.
(§2) HEK293 cells were obtained from ATCC (Manassas, VA, USA) and cultured in DMEM supplemented with 10% (v/v) FBS, 100 mg/L penicillin, and 100 mg/L streptomycin in 5% CO2 at 37 °C. For transient transfection, ~2.5 × 10^6 cells were mixed with 2 µg plasmids in 200 µL transfection buffer, and electroporation was carried out with a Scientz-2C electroporation apparatus (Scientz Biotech, Ningbo, China). The experiments were carried out 24 h after transfection. HEK293 cell lines stably expressing Gα16 were constructed by our laboratory.
(§3) For OXGR1, plasmids were transfected into HEK293 (other receptors were transfected into HEK293 stably expressing Gα16) and seeded at a density of 4 × 10^4 per well into 96-well culture plates and incubated for 24 h at 37 °C in 5% CO2. The next day, Cells were incubated with 2 μM/L Fluo-4 AM in HBSS supplemented with 5.6 mM/L D-glucose and 250 μM/L sulfinpyrazone at 37 °C for 45 min. […] Three independent measurements were repeated, i.e., three different transfections, with three technical replicates performed for each experiment. EC50 and Emax values for each curve were calculated by Prism 8.0 software (GraphPad Software).

[1] = system: mock-transfected HEK293 cells; test: Calcium assay in mock-transfected (empty vector) HEK293 cells; assay type: cell-based
Description: Figure. R3 | Activity of the compounds on OXGR1 using calcium assays.
Concentration-response curves of the four agonists in activating OXGR1 through the calcium assays. HEK293 cells were transfected with OXGR1 or empty vector by electroporation.
Cells were then loaded with Fluo-4 AM and intracellular calcium changes after stimulation with different compounds were monitored. Responses were normalized to 100% for the maximal response of each compound on OXGR1. Data are mean ± S.E.M. from three independent experiments (n = 3), with three technical replicates performed for each […]
(1 picture or pasted object on this page, not shown here)

[2] = system: OXGR1 mutants (variant named in the endpoint); test: Calcium mobilization assay, OXGR1 mutants in HEK293; conditions: for Emax: each ligand normalized to WT (100%);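 on all read-outs here: human OXGR1 variants transiently expressed in HEK293 cells, with intracellular calcium read out by Fluo-4 AM fluorescence, measured 24 h after transfection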
Description: as §1, §2, §3

OXGR1 = OXGR1 (Homo sapiens, UniProt Q96P68); test: Calcium mobilization assay (Fluo-4 AM), wild-type OXGR1 in HEK293
Description: as §1, §2, §3

## O=C(O)/C=C\C(=O)O [MA, maleate]
SUCR1; HEK293, SUCR1 WT, Emax relative to the SUC, read-out: Emax
  Emax: 89 ± 1%
SUCR1; SUCR1 WT
  EC50: 210 ± 70 µM
[1]
  activity in mock-transfected cells: no activity
[2]; OXGR1 D185A
  EC50: > 1000 µM
  Emax: 11± 3 WT%
[2]; OXGR1 E97A
  Emax: 79± 7 WT%
[2]; OXGR1 F113A
  EC50: > 1000 µM
  Emax: 5.1± 10 WT%
[2]; OXGR1 F113W
  EC50: 1000 ± 370 µM
  Emax: 99± 14 WT%
[2]; OXGR1 F113W versus WT
  increase in potency by F113W mutation: ~ 2 fold
[2]; OXGR1 F257A
  EC50: > 1000 µM
  Emax: 6.6± 7 WT%
[2]; OXGR1 F257Y
  EC50: 1900 ± 300 µM
  Emax: 93± 2 WT%
[2]; OXGR1 H114A
  EC50: 4200 ± 300 µM
  Emax: 79± 4 WT%
[2]; OXGR1 H114L
  EC50: > 1000 µM
  Emax: -4.4± 2 WT%
[2]; OXGR1 H281A
  Emax: 67±4 WT%
[2]; OXGR1 I172A
  EC50: > 1000 µM
  Emax: 11± 2 WT%
[2]; OXGR1 L36A
  EC50: > 1000 µM
  Emax: 10± 3 WT%
[2]; OXGR1 L89A
  EC50: > 1000 µM
  Emax: 6.9± 1 WT%
[2]; OXGR1 L186A
  EC50: > 1000 µM
  Emax: 14± 2 WT%
[2]; OXGR1 L186F
  EC50: > 10000 µM
  Emax: 58± 4 WT%
[2]; OXGR1 L299P
  EC50: > 1000 µM
  Emax: 7.8±3 WT%
[2]; OXGR1 L299P, in words
  activation of OXGR1 L299P: abolished
[2]; OXGR1 M168I
  EC50: 3200 ± 300 µM
  Emax: 71± 0.9 WT%
[2]; OXGR1 N28A
  EC50: 580 ± 30 µM
  Emax: 120± 2 WT%
[2]; OXGR1 R110A
  EC50: > 1000 µM
  Emax: -4.4± 2 WT%
[2]; OXGR1 R110E
  EC50: > 10000 µM
  Emax: 36± 30 WT%
[2]; OXGR1 R110Q
  EC50: > 1000 µM
  Emax: 14± 5 WT%
[2]; OXGR1 R177A
  Emax: 130± 8 WT%
[2]; OXGR1 R264A
  EC50: > 10000 µM
  Emax: 54± 5 WT%
[2]; OXGR1 R268A
  EC50: > 1000 µM
  Emax: 22± 4 WT%
[2]; OXGR1 R288A
  EC50: > 1000 µM
  Emax: -2.1±4 WT%
[2]; OXGR1 R288E
  EC50: > 1000 µM
[2]; OXGR1 R288Q
  EC50: > 1000 µM
  Emax: 16±2 WT%
[2]; OXGR1 Y40A
  EC50: > 1000 µM
  Emax: -1.9± 6 WT%
[2]; OXGR1 Y93A
  EC50: > 1000 µM
  Emax: 17± 20 WT%
[2]; OXGR1 Y284A
  EC50: > 1000 µM
  Emax: 4.8±4 WT%
OXGR1; EC50, OXGR1 WT, mutant series (Appendix Table S4)
  EC50: 2000 ± 400 µM
OXGR1; HEK293, OXGR1 WT, each ligand normalized to WT (100%)
  Emax: 100 ± 4%
OXGR1; in words
  activity in OXGR1-transfected HEK293 cells: robust activity
